# Measured values reported in PMC12332667, “Role of Structural Modifications in Peptidomimetic Compounds as Potential Antimicrobial Agents against Staphylococcus aureus and Streptococcus pyogenes: Balancing Bioavailability, Safety, and Antimicrobial Activity” (ACS Omega, 2025).
# Assays:
# E. faecalis c.i. = assay: MIC/MBC broth microdilution, E. faecalis; assay type: cell-based, Enterococcus faecalis
# Procedure: (§1) S. aureus (ATCC 29213),S. pyogenes (ATCC 19615),Streptococcus agalactiae (ATCC 27956),Escherichia coli (ATCC 25922),Proteus vulgaris (ATCC 6896),K. pneumoniae (ATCC 700603) andP. aeruginosa (ATCC 10145) reference strains, as well asStaphylococcus cohnii, Enterococcus faecalis, Staphylococcus schleiferi, Staphylococcus intermedius and Streptococcus mutans clinical isolates, were used to test the antibacterial activity of the peptidomimetics. Bacteria were aerobically cultured for 18 h at 37 °C in plates with sterilized brain heart infusion (BHI) broth (Sigma-Aldrich, USA) media mixed with bacteriological agar (Sigma-Aldrich, USA) using the streak plate method. After 18 h, BHI broth was inoculated to 0.5 on the McFarland scale and diluted to approximately 10^5 CFU/mL. To achieve a final stock concentration of 1024 μg/mL, the peptidomimetics were dissolved in sterile water, and 5–10% of absolute ethanol or dimethyl sulfoxide (DMSO) was added. The antibacterial activities were determined by using the standard broth microdilution method of the National Committee for Clinical Laboratory Standards. The process involved adding serially diluted peptidomimetics to consecutive wells of a 96-well microtiter plate (Brand, Germany) holding media with microorganisms. The inoculated plates treated with peptides were then placed in an incubator at 37 °C for 18 h. The MIC value was determined as the lowest concentration of peptidomimetic at which there was no obvious growth (equal or more than 90% of the untreated sample). […] The lowest concentration yielding growth in no more than 3 colonies, corresponding to at least a 99.9% kill rate, was taken as MBC. Each biological replicate included control wells with the addition of water, DMSO, and ethanol as respective solvent controls. All experiments were conducted with consistent adherence to growth and sterility controls and were performed at least in technical triplicate with three biological repeats.
# S. intemrdius c.i. = assay: MIC/MBC broth microdilution, S. intermedius; assay type: cell-based, Staphylococcus intermedius
# Procedure: as §1
# S. schleiferi c.i. = assay: MIC/MBC broth microdilution, S. schleiferi; assay type: cell-based, Staphylococcus schleiferi
# Procedure: as §1
# S. agalactiae ATCC 27956 = assay: MIC/MBC broth microdilution, S. agalactiae; assay type: cell-based, Streptococcus agalactiae; settings: S. agalactiae
# Procedure: as §1
# S. pyogenes ATCC 19615 = assay: MIC/MBC broth microdilution, S. pyogenes; assay type: cell-based, Streptococcus pyogenes; settings: S. pyogenes
# Procedure: as §1
# fibroblasts (46BR.1N) = assay: LDH cytotoxicity test, fibroblasts; assay type: cell-based; settings: 48 h, 50, 100 and 150 μg/mL, vs 1% Triton X-100
# Procedure: (§2) In our study, we used two distinct cell types: immortalized human HaCaT keratinocytes (DKFZ, Heidelberg, Germany) and a human dermal fibroblast cell line (46BR.1N). […] Cultures were maintained in a humidified atmosphere with 5% CO2 at 37 °C in 25 cm^2 culture flasks with the medium replenished every 2 days. The condition of the cells was monitored using optical microscopy.
# (§3) Cell death in immortalized human keratinocytes (HaCaT) and fibroblasts (46BR.1N) was measured by quantifying the lactate dehydrogenase (LDH) activity using a commercial kit (Roche, Switzerland). Cells were seeded in 96-well plates at a density of 5000 cells per well in DMEM high glucose medium supplemented with 10% FBS. After 24 h of incubation, the medium was replaced with serum-free medium containing various concentrations of peptidomimetics (50, 100, and 150 μg/mL). After 48 h, supernatants were collected for LDH analysis. Plate readings were taken spectrophotometrically using a 450 nm wavelength. Cell death measurements were normalized to an untreated control (0%), with 1% Triton X-100 detergent used as a positive control to induce maximum LDH release, indicating maximal cytotoxicity. Statistical significance was determined with a Mann–Whitney U test with a statistical significance p ≤ 0.05. Analysis was performed with Statistica software (Krakow, Poland) and graphs were prepared in GraphPad Prism (Boston, USA).
# S. mutans c.i. = assay: MIC/MBC broth microdilution, S. mutans; assay type: cell-based, Streptococcus mutans
# Procedure: as §1
# [1] = tested on: immortalized human keratinocytes (HaCaT); assay: LDH cytotoxicity test, keratinocytes; assay type: cell-based; settings: 48 h, 50, 100 and 150 μg/mL, vs 1% Triton X-100
# Procedure: as §2, §3
# P. aeruginosa ATCC 10145 = assay: MIC/MBC broth microdilution, P. aeruginosa; assay type: cell-based
# Procedure: as §1
# S. aureus ATCC 43300 = assay: MIC/MBC broth microdilution, S. aureus; assay type: cell-based, Staphylococcus aureus; settings: S. aureus
# S. cohnii c.i. = assay: MIC/MBC broth microdilution, S. cohnii; assay type: cell-based, Staphylococcus cohnii
# Procedure: as §1
# [2] = tested on: immortalized human HaCaT keratinocytes; assay: XTT cell proliferation assay, keratinocytes; assay type: cell-based; settings: XTT
# Procedure: (§4) In our study, we used two distinct cell types: immortalized human HaCaT keratinocytes (DKFZ, Heidelberg, Germany) and a human dermal fibroblast cell line (46BR.1N). […] Cultures were maintained in a humidified atmosphere with 5% CO2 at 37 °C in 25 cm^2 culture flasks with the medium replenished every 2 days. The condition of the cells was monitored using optical microscopy. […] After 24 h of incubation, the medium was replaced with serum-free HG-DMEM containing appropriate concentrations of peptidomimetics. All solutions used in the experiments were prepared with double-distilled water or with the addition of ethanol under sterile conditions to ensure compatibility with the conditions of the bacteriological assay. For 72 h of incubation, half of the medium was replaced with fresh medium after 48 h, and cells were stimulated with peptides for a second time. The XTT cell proliferation assay was then performed according to the manufacturer’s instructions (Roche, Switzerland). Cells were treated with the peptides for either 48 or 72 h, followed by the addition of XTT reagent, and the plates were then incubated at 37 °C in a 5% CO2 environment for 4 h. Plate readings were taken using a standard plate reader at a wavelength of 490 nm (OD = 490 nm). […] Statistical significance was determined with a Mann–Whitney U test with statistical significance p ≤ 0.05. Analysis was performed with Statistica software, and graphs were prepared in GraphPad Prism.
# E. coli ATCC 25922 = assay: MIC/MBC broth microdilution, E. coli; assay type: cell-based, Escherichia coli
# Procedure: as §1
# P. vulgaris ATCC 6896 = assay: MIC/MBC broth microdilution, P. vulgaris; assay type: cell-based, Proteus vulgaris
# Procedure: as §1
# [3] = tested on: human dermal fibroblast cell line (46BR.1N); assay: XTT cell proliferation assay, fibroblasts; assay type: cell-based; settings: XTT
# Procedure: as §4
# [4] = tested on: K. pneumoniae ATCC 700603; assay: MIC/MBC broth microdilution, K. pneumoniae; assay type: cell-based
# Procedure: as §1
compound,measurement,setting,value
CC(C)C[C@H](NC(=O)[C@H](CCCCNC(=N)N)NC(=O)OCc1ccccc1)C(=O)N[C@H](CNC(=O)/C=C/c1ccccc1)C(C)C [Compound A-134],MBC,E. faecalis c.i.; water additive DMSO,512 µg/mL
same,MIC,E. faecalis c.i.; water additive DMSO,256 µg/mL
same,MBC,E. faecalis c.i.; water additive EtOH,512 µg/mL
same,MIC,E. faecalis c.i.; water additive EtOH,512 µg/mL
same,MBC,S. intemrdius c.i.; water additive DMSO,32 µg/mL
same,MIC,S. intemrdius c.i.; water additive DMSO,32 µg/mL
same,MBC,S. intemrdius c.i.; water additive EtOH,16 µg/mL
same,MIC,S. intemrdius c.i.; water additive EtOH,16 µg/mL
same,MIC,S. schleiferi c.i.; water additive DMSO,> 512 µg/mL
same,MIC,S. schleiferi c.i.; water additive EtOH,> 512 µg/mL
same,MIC,S. agalactiae ATCC 27956; water additive DMSO,32 µg/mL
same,MIC,S. agalactiae ATCC 27956; water additive EtOH,32 µg/mL
same,MIC,S. pyogenes ATCC 19615; H2O,32 µg/mL
same,MBC,S. pyogenes ATCC 19615; water additive DMSO,16 µg/mL
same,MIC,S. pyogenes ATCC 19615; water additive DMSO,32 µg/mL
same,MBC,S. pyogenes ATCC 19615; water additive EtOH,32 µg/mL
same,MIC,S. pyogenes ATCC 19615; water additive EtOH,16 µg/mL
same,cytotoxicity (LDH),fibroblasts (46BR.1N),≤ 50%
same,MBC,S. mutans c.i.; water additive DMSO,> 512 µg/mL
same,MIC,S. mutans c.i.; water additive DMSO,512 µg/mL
same,MIC,S. mutans c.i.; water additive EtOH,> 512 µg/mL
same,cytotoxicity (LDH),[1],≤ 50%
same,MIC,P. aeruginosa ATCC 10145; water additive DMSO,> 512 µg/mL
same,MIC,P. aeruginosa ATCC 10145; water additive EtOH,> 512 µg/mL
same,MIC,S. aureus ATCC 43300; H2O,32 µg/mL
same,MIC,S. aureus ATCC 43300; water additive EtOH,32 µg/mL
same,MBC,S. cohnii c.i.; water additive DMSO,32 µg/mL
same,MIC,S. cohnii c.i.; water additive DMSO,32 µg/mL
same,MBC,S. cohnii c.i.; water additive EtOH,32 µg/mL
same,MIC,S. cohnii c.i.; water additive EtOH,32 µg/mL
same,proliferation relative to control at 50 μg/mL,[2]; 50 μg/mL,approximately 75%
same,"effect on proliferation, in words","[2]; 48 and 72 h, 0.01–150 μg/mL",pro-proliferating effect at lower concentrations followed by an antiproliferative effect at higher concentrations
same,MIC,E. coli ATCC 25922; water additive DMSO,> 512 µg/mL
same,MIC,E. coli ATCC 25922; water additive EtOH,> 512 µg/mL
same,MIC,P. vulgaris ATCC 6896; water additive DMSO,> 512 µg/mL
same,MIC,P. vulgaris ATCC 6896; water additive EtOH,> 512 µg/mL
same,proliferation relative to control at 50 μg/mL,[3]; 50 μg/mL,approximately 75%
same,"effect on proliferation, in words","[3]; 48 and 72 h, 0.01–150 μg/mL",pro-proliferating effect at lower concentrations followed by an antiproliferative effect at higher concentrations
same,MIC,[4]; water additive DMSO,> 512 µg/mL
same,MIC,[4]; water additive EtOH,> 512 µg/mL
